The source made the active and inactive calls.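 How the source made its calls: active means STAT5 reporter signal fold change below 0.5 at a 10 µM dose; inactive means the rest.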
Tested on: T47D STAT5-luciferase reporter, prolactin-induced, luminescence
Test: STAT5 signaling inhibitors, reporter cells, late-stage follow-up, cell-based, luminescence, T47D, assay provider (AID 652026)
Details: at 10 µM; stronger effect = lower value

Row | SMILES | fold change
1 | CN1/C(=C\C(=O)Cn2c(=O)c(C#N)cn(C)c2=O)C(C)(C)c2ccccc21 | 0.739 (inactive)
2 | CCOC(=O)C1CCCN(CC(=O)/C=C2/N(C)c3ccccc3C2(C)C)C1 (stereo not given) | 0.856 (inactive)
3 | O=C(C[n+]1ccc2ccccc2c1)c1cc2ccccc2oc1=O | 0.305
4 | CN1/C(=C\C(=O)CN2CCc3ccccc3C2)C(C)(C)c2ccccc21 | 0.962 (inactive)
5 | CN1/C(=C\C(=O)Cn2nnc(-c3ccccc3)n2)C(C)(C)c2ccccc21 | 0.724 (inactive)
6 | CN1/C(=C\C(=O)CN2CCCC2)C(C)(C)c2ccccc21 | 0.704 (inactive)
7 | CN1/C(=C\C(=O)Cn2cnc3ccc(Cl)cc3c2=O)C(C)(C)c2ccccc21 | 0.845 (inactive)
8 | CN1/C(=C\C(=O)CN2C(=O)c3ccccc3C2=O)C(C)(C)c2ccccc21 | 0.859 (inactive)
9 | CN1/C(=C\C(=O)C[n+]2cccc(-c3ccccc3)c2)C(C)(C)c2ccccc21 | 0.367
10 | CN1/C(=C\C(=O)Cn2cc(C(F)(F)F)ccc2=O)C(C)(C)c2ccccc21 | 0.971 (inactive)
11 | Cc1cc[n+](CC(=O)/C=C2\N(C)c3ccccc3C2(C)C)cc1 | 0.738 (inactive)
12 | CN1/C(=C\C(=O)CN2C(=O)c3ccccc3CS2(=O)=O)C(C)(C)c2ccccc21 | 0.766 (inactive)
13 | CN1/C(=C\C(=O)CN2C(=O)NC(C)(c3ccc(Cl)cc3)C2=O)C(C)(C)c2ccccc21 (stereo not given) | 0.769 (inactive)
14 | O=C(C[n+]1ccc2ccccc2c1)Nc1ccccc1 | 0.895 (inactive)
15 | COc1cccc2cc(C(=O)C[n+]3ccc4ccccc4c3)c(=O)oc12 | 0.965 (inactive)
16 | CN1/C(=C\C(=O)C[n+]2ccccc2)C(C)(C)c2ccccc21 | 0.777 (inactive)
17 | Cc1cc[n+](CC(=O)/C=C2\N(C)c3ccccc3C2(C)C)c(C)c1 | 0.67 (inactive)
18 | CN1/C(=C\C(=O)CN2C(=O)C3CC=CCC3C2=O)C(C)(C)c2ccccc21 (stereo not given) | 0.473
19 | CC(C)(C)C(=O)C[n+]1ccc2ccccc2c1 | 0.696 (inactive)
20 | COc1ccc2oc(=O)c(C(=O)C[n+]3ccc4ccccc4c3)cc2c1 | 0.843 (inactive)
21 | O=C(C[n+]1ccc2ccccc2c1)c1ccc2ccccc2c1 | 0.818 (inactive)
22 | O=C(C[n+]1ccc2ccccc2c1)c1ccccc1 | 0.909 (inactive)
23 | CN1/C(=C\C(=O)CN2C(=O)c3ccc([N+](=O)[O-])cc3C2=O)C(C)(C)c2ccccc21 | 0.76 (inactive)
24 | CN1/C(=C\C(=O)CN2C(=O)c3ccccc3S2(=O)=O)C(C)(C)c2ccccc21 | 0.733 (inactive)
25 | COC(=O)C1CCCCN1CC(=O)/C=C1/N(C)c2ccccc2C1(C)C (stereo not given) | 0.906 (inactive)

— PubChem BioAssay AID652026 (The Scripps Research Institute Molecular Screening Center, 2013)
